Key:
[1] = test system: prostaglandins E1, E2 F1α and F2α; assay: PG-inhibitory effect on the isolated gerbil colon; format: cell-based, Gerbils (Meriones unguiculatus); conditions: gerbil colon
Procedure: The PG-inhibitory effect of esters of the present invention on the gerbil colon are determined using the general technique described by Eakins, Miller & Karim (J. Pharm. Exp. Ther. 176:441, 1971). Gerbils (Meriones unguiculatus) of own breed, both sexes, weighing 50-80 g are used. The animal is stunned, colon ascendens immediately removed, and a 2-3 cm piece mounted in a 6 ml bath containing a modified de Jalon solution at 28° C and continuously oxygenated. Contractions of the organ are registered either isotonically or isometrically. When testing the inhibitory effect of a compound this is added to the bath 2 min before the addition of prostaglandin. […] Several concentrations of each antagonist are used.

[2] = test system: Slow Reacting Substance (SRS); assay: antagonism to Slow Reacting Substance on the isolated guinea-pig ileum (Mathe & Strandberg); format: cell-based
Procedure: The antagonism to Slow Reacting Substance (SRS) is determined on the isolated guinea-pig ileum as described by Mathe & Strandberg (Acta physiol. scand. 82:460, 1971). Purified SRS is obtained from cat paws perfused with compound 48/80 (Strandberg & Uvnas: Acta physiol. scand. 82:358, 1971). Sodium bis(4-(3-oxo-3-(2,4,6-trihydroxyphenyl)propyl)phenyl) phosphate was tested in this system in several concentrations.

[3] = test system: PGE1; assay: prostaglandin-stimulated glycolysis of the prepubertal ovary (lactic acid production); format: cell-based, rats; conditions: compared with the compound giving 50% reduction at 50-100 μg/ml
Procedure: The action of esters of the present invention on the prostaglandin-stimulated glycolysis of the prepubertal ovary is investigated. The method used has been described in detail by Perklev & Ahren (Life Sciences Part I, 10:1387, 1971). In these experiments ovaries from prepubertal rats are removed and placed in Erlenmeyer flasks containing compounds of this invention dissolved in Krebs biocarbonate buffer. After that the ovaries have been preincubated during 60 min. at 37° C in this medium, they are blotted on filter paper and then washed for 2 min. in plain buffer. The ovaries are then transferred to a new incubation medium containing prostaglandins (PG) dissolved in Krebs bicarbonate buffer and incubated at 37° C for 2 hrs with continuous shaking. The ovarian glycolysis is then determined by measuring the concentration of lactic acid in the incubation medium. When polyphloretin phosphate (PPP) is present in the preincubation medium in a concentration of 500 μg/ml, the subsequent ovarian lactic acid production produced by PGE1 is reduced to about 50% of that obtained with ovaries preincubated in plain buffer. When sodium bis(4-(3-(2,4,6-trihydroxyphenyl)propyl)phenyl)phosphate is investigated in the same experimental system, a 50% reduction of the lactate production is seen when only 50-100 μg/ml of the compound is present in the preincubation medium.

O=C(CCCc1ccc(OP(=O)([O-])Oc2ccc(CCCC(=O)c3ccc(O)cc3O)cc2)cc1)c1ccc(O)cc1O.[Na+] [sodium bis(4-(4-(2,4-dihydroxyphenyl)-4-oxobutyl)phenyl) phosphate]
selective inhibitory effects compared with PPP [1]: equal to or superior to that of PPP
inhibition of SRS [2]: inhibit SRS
prostaglandin inhibiting activity [3]: same order

O=C([O-])Cc1ccc(C(=O)CCc2cccc(OP(=O)([O-])Oc3cccc(CCC(=O)c4ccc(CC(=O)[O-])cc4)c3)c2)cc1.[Na+].[Na+].[Na+] [trisodium bis(3-(3-(4-carboxylatomethylphenyl)-3-oxopropyl)phenyl) phosphate]
selective inhibitory effects compared with PPP [1]: equal to or superior to that of PPP
inhibition of SRS [2]: inhibit SRS
prostaglandin inhibiting activity [3]: same order

O=C(CCc1cccc(OP(=O)([O-])Oc2cccc(CCC(=O)c3c(O)cc(O)cc3O)c2)c1)c1c(O)cc(O)cc1O.[Na+] [sodium bis(3-(3-(2,4,6-trihydroxyphenyl)-3-oxopropyl)phenyl) phosphate]
selective inhibitory effects compared with PPP [1]: equal to or superior to that of PPP
inhibition of SRS [2]: inhibit SRS
prostaglandin inhibiting activity [3]: same order

Nc1ccccc1C(=O)CCc1ccc(OP(=O)([O-])Oc2ccc(CCC(=O)c3ccccc3N)cc2)cc1.[Na+] [sodium bis(4-(3-(2-aminophenyl)-3-oxopropyl)phenyl) phosphate]
selective inhibitory effects compared with PPP [1]: equal to or superior to that of PPP

COC(=O)Cc1ccc(C(=O)CCc2cccc(OP(=O)([O-])Oc3cccc(CCC(=O)c4ccc(CC(=O)OC)cc4)c3)c2)cc1.[Na+] [sodium bis(3-(3-(4-methoxycarbonylmethylphenyl)-3-oxo-propyl)phenyl) phosphate]
selective inhibitory effects compared with PPP [1]: equal to or superior to that of PPP

O=C(CCc1cccc(OP(=O)(O)Oc2cccc(CCC(=O)c3ccc(OP(=O)(O)O)cc3)c2)c1)c1ccc(OP(=O)(O)O)cc1 [bis(dihydrogen phosphate) of bis(3-(3-(4-hydroxyphenyl)-3-oxopropyl)phenyl hydrogen phosphate]
selective inhibitory effects compared with PPP [1]: equal to or superior to that of PPP
inhibition of SRS [2]: inhibit SRS
prostaglandin inhibiting activity [3]: same order

COc1cc(CCC(=O)c2cccc(OP(=O)([O-])Oc3cccc(C(=O)CCc4ccc(O)c(OC)c4)c3)c2)ccc1O.[Na+] [sodium bis(3-(3-(4-hydroxy-3-methoxyphenyl)propionyl)phenyl) phosphate]
selective inhibitory effects compared with PPP [1]: equal to or superior to that of PPP
inhibition of SRS [2]: inhibit SRS

CN(C)C(=O)Cc1ccc(C(=O)CCc2cccc(OP(=O)([O-])Oc3cccc(CCC(=O)c4ccc(CC(=O)N(C)C)cc4)c3)c2)cc1.[Na+] [sodium bis(3-(3-(4-(N,N-dimethylcarbamoylmethyl)phenyl)-3-oxopropyl)phenyl)phosphate]
selective inhibitory effects compared with PPP [1]: equal to or superior to that of PPP

CCN(CC)c1ccc(CCC(=O)c2cc(C)c(OP(=O)([O-])Oc3c(C)cc(C(=O)CCc4ccc(N(CC)CC)cc4)cc3C)c(C)c2)cc1.[Na+] [sodium bis(4-(3-(4-diethylaminophenyl)propionyl)-2,6-dimethylphenyl) phosphate]
selective inhibitory effects compared with PPP [1]: equal to or superior to that of PPP

Nc1ccccc1C(=O)CCc1cccc(OP(=O)([O-])Oc2cccc(CCC(=O)c3ccccc3N)c2)c1.[Na+] [sodium bis(3-(3-(2-aminophenyl)-3-oxopropyl)phenyl) phosphate]
selective inhibitory effects compared with PPP [1]: equal to or superior to that of PPP

O=C(C=Cc1ccc(O)cc1)c1c(O)cc(OP(=O)([O-])Oc2cc(O)c(C(=O)C=Cc3ccc(O)cc3)c(O)c2)cc1O.[Na+] [sodium bis(3,5-dihydroxy-4-(3-(4-hydroxyphenyl)-acryloyl)phenyl) phosphate]
inhibition of SRS [2]: inhibit SRS
prostaglandin inhibiting activity [3]: same order

COc1cc(OP(=O)([O-])Oc2ccc(C(=O)CCc3ccc(N)cc3)c(OC)c2)ccc1C(=O)CCc1ccc(N)cc1.[Na+] [sodium bis(4-(3-(4-aminophenyl)propionyl)-3-methoxyphenyl) phosphate]
selective inhibitory effects compared with PPP [1]: equal to or superior to that of PPP

COc1ccc(CCC(=O)c2cccc(OP(=O)([O-])Oc3cccc(C(=O)CCc4ccc(OC)c(CN(C)C)c4)c3)c2)cc1CN(C)C.[Na+] [sodium bis(3-(3-(3-dimethylaminomethyl-4-methoxyphenyl)propionyl)phenyl) phosphate]
selective inhibitory effects compared with PPP [1]: equal to or superior to that of PPP

Nc1cccc(C(=O)CCc2ccc(OP(=O)(O)Oc3ccc(CCC(=O)c4cccc(N)c4)cc3)cc2)c1 [sodium bis(4-(3-aminophenyl)-3-oxypropyl)phenyl) phosphate]
selective inhibitory effects compared with PPP [1]: equal to or superior to that of PPP

O=C(CCc1cccc(OP(=O)([O-])Oc2cccc(CCC(=O)c3ccccc3O)c2)c1)c1ccccc1O.[Na+] [sodium bis(3-(3-(2-hydroxyphenyl)-3-oxopropyl)phenyl) phosphate]
selective inhibitory effects compared with PPP [1]: equal to or superior to that of PPP
inhibition of SRS [2]: inhibit SRS

CCN(CC)c1ccc(C=C(C(=O)c2ccc(OP(=O)([O-])Oc3ccc(C(=O)C(=Cc4ccc(N(CC)CC)cc4)c4ccc(C)cc4)c(OC)c3)cc2OC)c2ccc(C)cc2)cc1.[Na+] [sodium bis(4-(3-(4-diethylaminophenyl)-2-(4-methylphenyl)acryloyl)-3-methoxyphenyl) phosphate]
selective inhibitory effects compared with PPP [1]: equal to or superior to that of PPP

Cc1cc(OP(=O)([O-])Oc2ccc(CCC(=O)c3ccccc3O)c(C)c2)ccc1CCC(=O)c1ccccc1O.[Na+] [sodium bis(4-(3-(2-hydroxyphenyl)-3-oxopropyl)-3-methylphenyl) phosphate]
selective inhibitory effects compared with PPP [1]: equal to or superior to that of PPP
inhibition of SRS [2]: inhibit SRS

Nc1ccc(C(=O)CCc2ccc(OP(=O)(O)Oc3ccc(CCC(=O)c4ccc(N)cc4)cc3)cc2)cc1 [sodium bis(4-(3-(4-aminophenyl)-3-oxopropy)phenyl) phosphate]
selective inhibitory effects compared with PPP [1]: equal to or superior to that of PPP

CCN(CC)c1ccc(CCC(=O)c2cccc(OP(=O)([O-])Oc3cccc(C(=O)CCc4ccc(N(CC)CC)cc4)c3)c2)cc1.[Na+] [sodium bis(3-(3-(4-diethylaminophenyl)propionyl)phenyl) phosphate]
selective inhibitory effects compared with PPP [1]: equal to or superior to that of PPP

O=C(CCc1ccc(OP(=O)([O-])Oc2ccc(CCC(=O)c3ccccc3O)cc2)cc1)c1ccccc1O.[Na+] [sodium bis(4-(3-(2-hydroxyphenyl)-3-oxopropyl)phenyl)phosphate]
selective inhibitory effects compared with PPP [1]: equal to or superior to that of PPP
inhibition of SRS [2]: inhibit SRS
